Measurements from US8134004B2, “Substituted N-bicyclicalkyl bicycliccarboxyamide compounds” (Pfizer Inc., priority 2006, dated 2012).

Target: human VR1 (Homo sapiens, UniProt Q8NER1)
Experiment: Human VR1 antagonist assay (Ca2+ imaging)
Format: cell-based
Conditions: Ca2+ imaging assay using human VR1 highly expressing cells, fura-2/AM; agonist stimulation (capsaicin 300 nM or acid pH 5.8), not given
Description: Human VR1 Antagonist Assay
VR1 antagonistic activity can be determined by the Ca^2+ imaging assay using human VR1 highly expressing cells. The cells that highly express human VR1 receptors are obtainable from several different conventional methods. The one standard method is cloning from human Dorsal Root Ganglion (DRG) or kidney according to the methods such as described in the journal article; Nature, 389, pp 816-824, 1997. Alternatively VR1 receptors highly expressing human keratinocytes are also known and published in the journal article (Biochemical and Biophysical Research Communications, 291, pp 124-129, 2002). […] Furthermore, the method to up regulate human VR1 gene, which is usually a silent gene or don't produce detectable level of VR1 receptors, is also available to obtain propriety cells. Such genetic modification method was described in detail; Nat. Biotechnol., 19, pp 440-445, 2001.
The cells that express human VR1 receptors were maintained in culture flask at 37° C. in an environment containing 5% CO2 until use in the assay. The intracellular Ca^2+ imaging assay to determine VR1 antagonistic activities were done by following procedures.
The culture medium was removed from the flask and fura-2/AM fluorescent calcium indicator was added to the flask at a concentration of 5 μM in the medium. The flask was placed in CO2 incubator and incubated for 1 hour. Then the cells expressing the human VR1 receptors were detached from the flask follow by washing with phosphate buffer saline, PBS(−) and re-suspended in assay buffer. The 80 μl of aliquot of cell suspension (3.75×10^5 cells/ml) was added to the assay plate and the cells were spun down by centrifuge (950 rpm, 20° C., 3 minutes).
The compounds of the examples were tested in the Human VR1 antagonist assay described above.
The capsaicin-induced changes in the intracellular calcium concentration were monitored using FDSS 6000 (Hamamatsu Photonics, Japan), a fluorometric imaging system. The cell suspension in Krebs-Ringer HEPES (KRH) buffer (115 mM NaCl, 5.4 mM KCl, 1 mM MgSO4, 1.8 mM CaCl2, 11 mM D-Glucose, 25 mM HEPES, 0.96 mM Na2HPO4, pH 7.3) were pre-incubated with varying concentrations of the test compounds or KRH buffer (buffer control) for 15 minutes at room temperature under the dark condition. Then capsaicin solution, which gives 300 nM in assay mixture, was automatically added to the assay plate by the FDSS 6000.
The Acid-induced changes in the intracellular calcium concentration were monitored using FDSS 6000 (Hamamatsu Photonics, Japan), a fluorometric imaging system. The cell suspension in resting buffer (HBSS supplemented with 10 mM HEPES, pH 7.4) were pre-incubated with varying concentrations of the test compounds or resting buffer (buffer control) for 15 minutes at room temperature under the dark condition. The cells were automatically added the stimulating solution (HBSS supplemented with MES, final assay buffer pH5.8) by the FDSS 6000.
The monitoring of the changes in the fluorescence signals (λex=340 nm/380 nm, λem=510-520 nm) was initiated at 1 minute prior to the addition of capsaicin solution or acidic buffer and continued for 5 minute.

human VR1, sequence (Q8NER1 whole entry): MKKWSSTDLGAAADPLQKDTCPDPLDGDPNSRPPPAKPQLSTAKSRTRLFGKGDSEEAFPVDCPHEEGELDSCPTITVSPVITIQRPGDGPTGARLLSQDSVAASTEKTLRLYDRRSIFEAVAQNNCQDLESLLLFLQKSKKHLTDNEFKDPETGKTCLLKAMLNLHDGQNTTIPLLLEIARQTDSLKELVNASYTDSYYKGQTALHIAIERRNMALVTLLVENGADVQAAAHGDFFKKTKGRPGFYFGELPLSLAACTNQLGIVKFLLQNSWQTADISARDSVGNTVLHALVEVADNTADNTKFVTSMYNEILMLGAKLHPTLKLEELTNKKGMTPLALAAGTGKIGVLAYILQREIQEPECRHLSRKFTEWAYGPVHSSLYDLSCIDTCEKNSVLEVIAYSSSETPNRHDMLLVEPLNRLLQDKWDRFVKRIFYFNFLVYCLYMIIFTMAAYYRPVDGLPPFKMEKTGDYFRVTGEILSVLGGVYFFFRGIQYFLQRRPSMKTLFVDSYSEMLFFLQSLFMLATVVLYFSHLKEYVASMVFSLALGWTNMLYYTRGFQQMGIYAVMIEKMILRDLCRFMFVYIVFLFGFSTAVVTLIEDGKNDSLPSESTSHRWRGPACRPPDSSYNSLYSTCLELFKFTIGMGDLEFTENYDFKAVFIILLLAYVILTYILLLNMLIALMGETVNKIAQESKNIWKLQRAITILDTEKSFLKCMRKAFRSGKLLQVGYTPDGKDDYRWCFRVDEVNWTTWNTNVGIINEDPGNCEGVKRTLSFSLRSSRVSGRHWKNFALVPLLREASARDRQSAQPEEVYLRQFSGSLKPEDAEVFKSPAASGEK

IC50 [nM] | SMILES
17 | CC(C)(C)c1ccc2cc(C(=O)NCc3ccnc4ccccc34)ccc2c1 [Example A2]
23 | CC(NC(=O)c1ccc2nc(C(C)(C)C(F)(F)F)ccc2c1)c1ccc2[nH]ncc2c1 (centres unmarked) [Example C4, N-[1-1H-indazole-5-ylethyl]-2-(2,2,2-trifluoro-1,1-dimethylethyl)quinoline-6-carboxamide]
